Results from patent US20250305055A1, “PROGNOSTIC/PREDICTIVE BREAST CANCER SIGNATURE” (priority 2021, published 2025).

System: breast cancer cell lines BT20, MDA-MB-231 and SUM-i 159
Assay: Drug response: breast cancer cell line proliferation inhibition
Type: cell-based
Details: same dose as in the triple-drug combinations, BT20, MDA-MB-231, SUM-i 159, FIG. 9
Description: The breast cancer cell lines BT20, MDA-MB-231 and SUM-i 159 were treated with HDAC inhibitor (MS275), ISP inhibitor (17-AAG), mTOR inhibitor (Niclosamide), polo-like kinase inhibitor (1312536) and histone demethylase inhibitor (GSK-J4).

| SMILES | inhibition of breast cancer cell line proliferation, single treatment |
| --- | --- |
| CCOC(=O)CCNc1cc(N2CCc3ccccc3CC2)nc(-c2ccccn2)n1 [GSK-J4] | ineffective |
| Nc1ccccc1NC(=O)c1ccc(CNC(=O)OCc2cccnc2)cc1 [MS275, Entinostat] | ineffective |
| O=C(Nc1ccc([N+](=O)[O-])cc1Cl)c1cc(Cl)ccc1O [Niclosamide] | ineffective |
| CC[C@@H]1C(=O)N(C)c2cnc(Nc3ccc(C(=O)NC4CCN(C)CC4)cc3OC)nc2N1C1CCCC1 [compound 1312536] | ineffective |
